In ChEMBL document CHEMBL1212748, “Patients with long-term oral carriage harbor high-persister mutants of Candida albicans” (2010):
Values after ≈ are worked out from the molar mass of the structure shown. Active and inactive are the calls of the source. The calls are words filed in the database; no cut-off is given here.

Experiments:
Candida albicans [1] = experiment: Antimicrobial activity against Candida albicans high-persister mutants assessed as microbial death at 50 ug/ml after 48 hrs by broth microdilution method; assay type: functional, organism-based
Candida albicans [2] = experiment: Antimicrobial activity against Candida albicans CAF2-1 assessed as microbial death at 10 to 100 ug/ml after 48 hrs by broth microdilution method; assay type: functional, organism-based
Candida albicans [3] = experiment: Antimicrobial activity against Candida albicans low-persister mutants assessed as microbial death at 10 to 100 ug/ml after 48 hrs by broth microdilution method; assay type: functional, organism-based
Candida albicans [4] = experiment: Antimicrobial activity against Candida albicans high-persister mutants assessed as microbial death at 10 to 100 ug/ml after 48 hrs by broth microdilution method; assay type: functional, organism-based
Candida albicans [5] = experiment: Antimicrobial activity against Candida albicans high-persister mutants after 48 hrs by broth microdilution method; assay type: functional

Compound	Activity (Candida albicans [1])	Activity (Candida albicans [2])	Activity (Candida albicans [3])	Activity (Candida albicans [4])	MIC (Candida albicans [5]) [µg/mL]
C[C@@H]1[C@H](O)[C@@H](C)/C=C/C=C/C=C/C=C/C=C/C=C/C=C/[C@H](O[C@@H]2O[C@H](C)[C@@H](O)[C@H](N)[C@@H]2O)C[C@@H]2O[C@](O)(C[C@@H](O)C[C@@H](O)[C@H](O)CC[C@@H](O)C[C@@H](O)CC(=O)O[C@H]1C)C[C@H](O)[C@H]2C(=O)O	inactive	Active	Active	Active	–
N=C(NCCCCCCNC(=N)NC(=N)Nc1ccc(Cl)cc1)NC(=N)Nc1ccc(Cl)cc1 [CHLORHEXIDINE]	–	–	–	–	1.5 (≈ 2.97 µM)
